Read-outs that look alike come from different tables or passages of the source.
Experiments:
[1] = tested on: metastatic colorectal cancer; assay: CMAB009 Ph2/3 trial; format: in vivo, human
Method: 501 patients were identified and randomized in a 2:1 manner to group 1 or group 2. […] Patients in both groups were treated until the disease progressed or the patient reached an unacceptable level of toxicity.
Patients were evaluated for radiologic response in both group 1 and group 2. […] Note the overall response rate (ORR) in Table 6 was determined according to the sum of the rate of CR and PR, and the disease control rate (DCR) was determined according to the sum of the rates of CR, PR, and SD.

[2] = tested on: metastatic colorectal cancer; conditions: EPIC, cited from earlier work
[3] = radiologic response, n = 337 / n = 164
[4] = radiologic response, n = 648 / n = 650

CCc1c2c(nc3ccc(OC(=O)N4CCC(N5CCCCC5)CC4)cc13)-c1cc3c(c(=O)n1C2)COC(=O)[C@]3(O)CC [Irinotecan monotherapy, irinotecan]
Time to disease progression ([1]; CMAB009 Ph2/3 trial): 3.2 months
Test drug-related death AE, no. of patients ([1]; N = 342 / N = 170): 0
At least one ADR, % ([1]; human, in vivo): (74.1%)
At least one ADR, no. of patients ([1]; human, in vivo): 126
At least one AE which lead to stop drug treatment, % ([1]; human, in vivo): (15.9%)
At least one AE which lead to stop drug treatment, no. of patients ([1]; human, in vivo): 27
At least one AE, % ([1]; human, in vivo): (87.1%)
At least one AE, no. of patients ([1]; human, in vivo): 148
At least one Level III or above ADR, % ([1]; human, in vivo): (5.9%)
At least one Level III or above ADR, no. of patients ([1]; human, in vivo): 10
At least one Level III or above AE, % ([1]; human, in vivo): (7.1%)
At least one Level III or above AE, no. of patients ([1]; human, in vivo): 12
At least one Level III or above important AE, % ([1]; human, in vivo): (6.5%)
At least one Level III or above important AE, no. of patients ([1]; human, in vivo): 11
At least one SAE, % ([1]; human, in vivo): (4.7%)
At least one SAE, no. of patients ([1]; human, in vivo): 8
At least one important AE, % ([1]; human, in vivo): (70.6%)
At least one important AE, no. of patients ([1]; human, in vivo): 120
At least one test drug-related SAE, % ([1]; human, in vivo): (0.6%)
At least one test drug-related SAE, no. of patients ([1]; human, in vivo): 1
Grade 3-4 adverse events: Abdominal pain, no. of patients ([1]; human, in vivo): 0
Grade 3-4 adverse events: Acne-like rash, no. of patients ([1]; human, in vivo): 0
Grade 3-4 adverse events: Anemia, no. of patients ([1]; human, in vivo): 3
Grade 3-4 adverse events: Anemia, rate in parentheses ([1]; human, in vivo): 1.8
Grade 3-4 adverse events: Any, no. of patients ([1]; human, in vivo): 57
Grade 3-4 adverse events: Asthenia, no. of patients ([1]; human, in vivo): 6
Grade 3-4 adverse events: Asthenia, rate in parentheses ([1]; human, in vivo): 3.7
Grade 3-4 adverse events: Diarrhea, no. of patients ([1]; human, in vivo): 12
Grade 3-4 adverse events: Diarrhea, rate in parentheses ([1]; human, in vivo): 7.3
Grade 3-4 adverse events: Fever, no. of patients ([1]; human, in vivo): 1
Grade 3-4 adverse events: Fever, rate in parentheses ([1]; human, in vivo): 0.9
Grade 3-4 adverse events: Nausea and vomiting, no. of patients ([1]; human, in vivo): 16
Grade 3-4 adverse events: Nausea and vomiting, rate in parentheses ([1]; human, in vivo): 9.8
Grade 3-4 adverse events: Neutropenia, no. of patients ([1]; human, in vivo): 14
Grade 3-4 adverse events: Neutropenia, rate in parentheses ([1]; human, in vivo): 8.5
Grade 3-4 adverse events: Stomatitis, no. of patients ([1]; human, in vivo): 0
Grade 3-4 adverse events: Thrombocytopenia, no. of patients ([1]; human, in vivo): 0
Complete response, no. of patients [1, 3]: 1
Complete response, rate in parentheses [1, 3]: (0.6)
Partial response, no. of patients [1, 3]: 20
Partial response, rate in parentheses [1, 3]: (12.2)
Progressive disease, no. of patients [1, 3]: 44
Progressive disease, rate in parentheses [1, 3]: (26.8)
Stable disease, no. of patients [1, 3]: 86
Stable disease, rate in parentheses [1, 3]: (52.4)
Unable to evaluate, no. of patients [1, 3]: 13
Unable to evaluate, rate in parentheses [1, 3]: (7.9)
Overall response rate, no. of patients ([1]; sum of CR and PR, n = 337 / n = 164): 21
Disease control rate, no. of patients ([1]; sum of CR, PR and SD, n = 337 / n = 164): 107
Overall response rate, rate in parentheses ([1]; sum of the rate of CR and PR, n = 337 / n = 164): (12.8
Disease control rate, rate in parentheses ([1]; sum of the rates of CR, PR, and SD, n = 337 / n = 164): (65.2
Overall survival [2]: 10.0 months
Time to disease progression [2]: 2.6 months
Disease control rate, no. of patients ([2]; n = 648 / n = 650): 298
Disease control rate, rate in parentheses ([2]; n = 648 / n = 650): (45.8)
Overall response rate, no. of patients ([2]; n = 648 / n = 650): 27
Overall response rate, rate in parentheses ([2]; n = 648 / n = 650): (4.2
Complete response, no. of patients [2, 4]: 1
Complete response, rate in parentheses [2, 4]: (0.2)
Partial response, no. of patients [2, 4]: 26
Partial response, rate in parentheses [2, 4]: (4.0)
Progressive disease, no. of patients [2, 4]: 243
Progressive disease, rate in parentheses [2, 4]: (37.4)
Stable disease, no. of patients [2, 4]: 271
Stable disease, rate in parentheses [2, 4]: (41.7)
Unable to evaluate, no. of patients [2, 4]: 72
Unable to evaluate, rate in parentheses [2, 4]: (11.1)

Source: patent US10118966B2, “Anti-EGFR monoclonal antibody, methods of making, and uses thereof in the treatment of cancer” (Shanghai Biomabs Pharmaceuticals Co., Ltd., priority 2015, dated 2018)
